{
  "source": "paper PMC11942905",
  "about": "“Identification of a Selective Inhibitor of Human NFS1, a Cysteine Desulfurase Involved in Fe-S Cluster Assembly, via Structure-Based Virtual Screening” (International Journal of Molecular Sciences, 2025)",
  "key": {"[1]": {"biological_target": "T1, NFS1 E387A (Homo sapiens, UniProt Q9Y697, E387A)", "T1 construct": "His tag (N); made in house; host or cells: E. coli BL21(DE3)", "T1 sequence (Q9Y697 56-457 E387A)": "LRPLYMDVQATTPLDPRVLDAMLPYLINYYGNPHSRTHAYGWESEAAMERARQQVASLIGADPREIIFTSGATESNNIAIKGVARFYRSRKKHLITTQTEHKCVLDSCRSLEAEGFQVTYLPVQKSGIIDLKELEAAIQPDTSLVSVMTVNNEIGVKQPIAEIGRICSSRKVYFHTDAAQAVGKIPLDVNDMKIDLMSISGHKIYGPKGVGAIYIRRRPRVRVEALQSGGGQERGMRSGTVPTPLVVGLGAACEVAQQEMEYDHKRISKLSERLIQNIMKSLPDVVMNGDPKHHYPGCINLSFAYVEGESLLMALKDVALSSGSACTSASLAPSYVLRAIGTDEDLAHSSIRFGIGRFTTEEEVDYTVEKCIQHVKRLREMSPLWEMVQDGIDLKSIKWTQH", "experiment": "H2S-producing assay, NFS1 E387A mutant", "format": "biochemical", "protocol": "To further validate the accuracy of the simulated results, the residues Cys158, Glu387, Lys157, and His156 were mutated to alanine using site-directed mutagenesis.\nFor the expression and purification of NFS1Δ1-55/ISD11 in E. coli, the plasmid pNFS1-ISD11 was transformed into BL21(DE3) cells. The cells were grown at 37 °C in 1 L cultures of LB medium containing chloramphenicol (50 μg/ml) until the optical density at 600 nm (OD600) reached 0.6–0.8. Protein expression was induced by adding 0.1 mM isopropyl β-D-1-thiogalactopyranoside (IPTG), followed by an additional 12 h of incubation at 25 °C. The cells were harvested by centrifugation at 8000 rpm for 10 min at 4 °C, then resuspended in lysis buffer containing 50 mM phosphate-buffered saline (PBS, pH 7.4), 500 mM NaCl, 100 mg/L lysozyme, 30 mM imidazole, and 1 mM phenylmethanesulfonyl fluoride (PMSF). The resuspended cells were incubated on ice for 1 h, followed by sonication using an Ultrasonic Cell Disruption System (Scientz, Ningbo, China). The supernatant was obtained by centrifugation at 12,000 rpm for 30 min at 4 °C and was loaded onto a HisTrap FF column (GE Healthcare, Chicago, MA, USA) pre-equilibrated with lysis buffer. […] The protein concentration was measured using a BCA protein assay reagent kit (TransGen Biotech, Beijing, China)."}, "[2]": {"tested_on": "A549 cells", "experiment": "CCK-8 cell viability assay, A549", "format": "cell-based, human", "protocol": "Human bronchial epithelial cells (BEAS-2B) and human lung adenocarcinoma A549 cells were purchased from the Institute of Biochemistry and Cell Biology, Chinese Academy of Sciences (Shanghai, China). BEAS-2B and A549 cells were cultured in DMEM supplemented with 10% (v/v) fetal bovine serum and 1% (v/v) penicillin–streptomycin solution at 37 °C in a humidified atmosphere containing 5% CO2. The half-maximal inhibitory concentration (IC50) values of the selected compounds against BEAS-2B and A549 cells were determined using the CCK-8 assay. Briefly, the cells were seeded into 96-well culture plates at a density of 5 × 10^3 cells per well. After 12 h of culture, fresh medium containing varying concentrations of the selected compounds dissolved in DMSO was added for an additional 72-hour incubation. Subsequently, 10 μL of CCK-8 solution was added to each well, followed by a further 1.5-h incubation at 37 °C. The optical density at 450 nm (OD450) for each well was measured using a microplate reader. Medium containing DMSO alone was used as the control group. Cell viability was calculated as the percentage of the OD450 of the experimental group compared to that of the control group, which was set at 100%."}, "[3]": {"tested_on": "A549 cells", "experiment": "Cellular iron content by atomic absorption spectroscopy", "format": "cell-based, human", "conditions": "50 µM, 48 h", "protocol": "A549 cells were seeded in a 6-well plate and grown to 40–60% confluence. […] The cells were then washed three times with PBS and digested with 0.25% trypsin (Servicebio, Wuhan, China) for 2 min. The cells were divided into two equal groups: group A and group B. In group A, the cells were lysed with RIPA lysis buffer supplemented with 1 mM of PMSF to extract the total proteins. Protein concentrations were measured using a BCA protein assay reagent kit. In group B, the cells were treated with concentrated nitric acid at 70 °C for 2 h. Once the cells were completely nitrated, the temperature was increased to 150 °C until the nitric acid had completely evaporated. Subsequently, the samples were diluted to 10 mL with a solution containing 1% HNO3 and 0.1% KCl, and the iron levels were measured using atomic absorption spectroscopy (AAS; Analytik Jena AG, Jena, Germany). The iron content was calculated based on the standard curve, and the values were normalized to the protein concentration."}, "[4]": {"biological_target": "T2, cystathionine-γ-lyase (CSE) (Homo sapiens, UniProt P32929)", "T2 construct": "made in house; host or cells: E. coli", "T2 sequence (P32929 whole entry)": "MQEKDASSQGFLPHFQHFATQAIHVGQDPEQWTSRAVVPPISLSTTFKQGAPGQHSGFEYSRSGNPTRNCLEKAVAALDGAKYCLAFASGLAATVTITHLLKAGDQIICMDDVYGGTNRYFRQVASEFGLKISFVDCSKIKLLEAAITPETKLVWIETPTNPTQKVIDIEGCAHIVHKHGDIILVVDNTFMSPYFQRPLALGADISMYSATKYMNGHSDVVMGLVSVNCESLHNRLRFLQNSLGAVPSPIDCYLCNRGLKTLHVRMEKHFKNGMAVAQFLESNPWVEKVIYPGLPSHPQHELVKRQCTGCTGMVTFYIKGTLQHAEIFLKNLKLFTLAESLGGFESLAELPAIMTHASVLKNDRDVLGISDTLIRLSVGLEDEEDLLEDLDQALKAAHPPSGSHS", "experiment": "Selectivity assay, H2S-producing activity of CSE", "format": "biochemical", "conditions": "at 100 µM", "protocol": "To evaluate the selectivity of Compounds 53 and 56, their effects on the activities of two other PLP-dependent enzymes, human cystathionine-β-synthase (CBS) and cystathionine-γ-lyase (CSE), were determined using a H2S-producing assay. Human CBS and CSE were expressed and purified in E. coli with a purity exceeding 90%, as confirmed by SDS-PAGE (Figures S4A and S5A). Subsequently, the H2S-producing activities of CBS and CSE were assessed in the presence of different concentrations of Compounds 53 and 56. A widely used CBS inhibitor, AOAA, and a specific CSE inhibitor, PAG, were used as positive controls (Figures S4B and S5B).\nThe H2S-producing activity of CBS was measured as previously described. The reaction mixture (200 μL) contained 50 mM of Hepes buffer (pH 7.4), 2 mM of homocysteine, 10 μM of PLP, 0.4 mM of lead nitrate, and 5 μg of CBS protein. It was preincubated at 37 °C for 3 min, and the reaction was initiated by the addition of 2 mM of cysteine. The reaction was monitored in a multifunctional microplate reader at 37 °C for 10 min. An extinction coefficient of 5500 M^−1 cm^−1 at 390 nm was used to calculate the lead sulfide concentration. The method used to determine CSE activity in the H2S-producing assay was identical to the CBS assay, except that 1 mM of cysteine was used as the sole substrate. […]"}},
  "data": [
    {"smiles": "COc1cc(/C=N/NC(=O)COc2ccc(Cl)cc2Cl)ccc1O", "note": "[Compound 53]", "values": [
      {"measurement": "IC50", "setting": "[1]", "result": "105 ± 3.17", "unit": "µM"},
      {"measurement": "anti-proliferative activity in the presence of Erastin", "setting": "[2]; A549 cells, Compound 53 50 µM with 2.5 µM Erastin, versus without", "result": "increased remarkably"},
      {"measurement": "IC50", "setting": "[2]; Homo sapiens, A549, CCK-8, 72 h", "result": "16.3 ± 1.92", "unit": "µM"},
      {"measurement": "cellular iron content", "setting": "[3]", "result": "significantly increased the cellular iron content"},
      {"measurement": "inhibitory effect on CSE", "setting": "[4]", "result": "no significant inhibitory effects"}
    ]}
  ]
}
